From ChEMBL document CHEMBL1128688, “Synthesis and biological evaluation of a series of substituted benzo[a]phenanthridines as agonists at D1 and D2 dopamine receptors” (J Med Chem, 1995)

What was measured:
[1] = molecular target: Adenylate cyclase type 5 (Rattus norvegicus) (UniProt Q04400); assay: Intrinsic activity measured as ability to stimulate dopamine sensitive Adenylate cyclase activity was measured in rat striatum.; format: functional, tissue-based
[2] = molecular target: D(1A) dopamine receptor (Rattus norvegicus) (UniProt P18901); assay: Binding affinity for dopamine receptor D1 in rat striatal homogenate
Sequence of D(1A) dopamine receptor (Rattus norvegicus) (P18901 whole entry): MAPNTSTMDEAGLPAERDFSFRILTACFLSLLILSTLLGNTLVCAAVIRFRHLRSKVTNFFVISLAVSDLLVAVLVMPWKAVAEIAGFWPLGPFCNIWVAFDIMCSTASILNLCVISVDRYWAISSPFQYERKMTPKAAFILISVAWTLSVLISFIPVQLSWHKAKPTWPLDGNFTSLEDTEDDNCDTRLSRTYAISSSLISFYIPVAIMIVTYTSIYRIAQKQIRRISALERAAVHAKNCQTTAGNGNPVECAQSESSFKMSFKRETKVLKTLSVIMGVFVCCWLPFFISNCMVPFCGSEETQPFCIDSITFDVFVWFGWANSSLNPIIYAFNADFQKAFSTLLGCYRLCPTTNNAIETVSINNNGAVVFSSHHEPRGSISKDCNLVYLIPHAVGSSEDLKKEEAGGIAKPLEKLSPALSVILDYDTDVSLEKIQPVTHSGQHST

[3] = molecular target: D(2) dopamine receptor (Rattus norvegicus) (UniProt P61169); assay: Binding affinity for Dopamine receptor D2 of rat striatal homogenate
Sequence of D(2) dopamine receptor (Rattus norvegicus) (P61169 whole entry): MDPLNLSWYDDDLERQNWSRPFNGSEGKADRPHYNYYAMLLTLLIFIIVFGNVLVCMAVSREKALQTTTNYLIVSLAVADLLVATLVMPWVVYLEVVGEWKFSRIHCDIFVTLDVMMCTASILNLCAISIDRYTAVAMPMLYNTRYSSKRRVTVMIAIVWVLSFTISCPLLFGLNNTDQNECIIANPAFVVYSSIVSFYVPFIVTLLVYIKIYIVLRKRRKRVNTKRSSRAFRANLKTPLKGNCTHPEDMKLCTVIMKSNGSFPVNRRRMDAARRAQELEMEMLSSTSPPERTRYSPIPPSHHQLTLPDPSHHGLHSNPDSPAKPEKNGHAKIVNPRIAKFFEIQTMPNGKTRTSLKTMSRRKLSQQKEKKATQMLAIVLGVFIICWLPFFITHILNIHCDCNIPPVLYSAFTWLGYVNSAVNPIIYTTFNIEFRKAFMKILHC

[4] = molecular target: Dopamine receptors; D1 & D2 (Rattus norvegicus) (UniProt P18901+P61169); assay: Relative binding affinity for dopamine receptors D1 and D2 in rat striatal homogenates

Sequence of Adenylate cyclase type 5 (Rattus norvegicus) (Q04400 whole entry): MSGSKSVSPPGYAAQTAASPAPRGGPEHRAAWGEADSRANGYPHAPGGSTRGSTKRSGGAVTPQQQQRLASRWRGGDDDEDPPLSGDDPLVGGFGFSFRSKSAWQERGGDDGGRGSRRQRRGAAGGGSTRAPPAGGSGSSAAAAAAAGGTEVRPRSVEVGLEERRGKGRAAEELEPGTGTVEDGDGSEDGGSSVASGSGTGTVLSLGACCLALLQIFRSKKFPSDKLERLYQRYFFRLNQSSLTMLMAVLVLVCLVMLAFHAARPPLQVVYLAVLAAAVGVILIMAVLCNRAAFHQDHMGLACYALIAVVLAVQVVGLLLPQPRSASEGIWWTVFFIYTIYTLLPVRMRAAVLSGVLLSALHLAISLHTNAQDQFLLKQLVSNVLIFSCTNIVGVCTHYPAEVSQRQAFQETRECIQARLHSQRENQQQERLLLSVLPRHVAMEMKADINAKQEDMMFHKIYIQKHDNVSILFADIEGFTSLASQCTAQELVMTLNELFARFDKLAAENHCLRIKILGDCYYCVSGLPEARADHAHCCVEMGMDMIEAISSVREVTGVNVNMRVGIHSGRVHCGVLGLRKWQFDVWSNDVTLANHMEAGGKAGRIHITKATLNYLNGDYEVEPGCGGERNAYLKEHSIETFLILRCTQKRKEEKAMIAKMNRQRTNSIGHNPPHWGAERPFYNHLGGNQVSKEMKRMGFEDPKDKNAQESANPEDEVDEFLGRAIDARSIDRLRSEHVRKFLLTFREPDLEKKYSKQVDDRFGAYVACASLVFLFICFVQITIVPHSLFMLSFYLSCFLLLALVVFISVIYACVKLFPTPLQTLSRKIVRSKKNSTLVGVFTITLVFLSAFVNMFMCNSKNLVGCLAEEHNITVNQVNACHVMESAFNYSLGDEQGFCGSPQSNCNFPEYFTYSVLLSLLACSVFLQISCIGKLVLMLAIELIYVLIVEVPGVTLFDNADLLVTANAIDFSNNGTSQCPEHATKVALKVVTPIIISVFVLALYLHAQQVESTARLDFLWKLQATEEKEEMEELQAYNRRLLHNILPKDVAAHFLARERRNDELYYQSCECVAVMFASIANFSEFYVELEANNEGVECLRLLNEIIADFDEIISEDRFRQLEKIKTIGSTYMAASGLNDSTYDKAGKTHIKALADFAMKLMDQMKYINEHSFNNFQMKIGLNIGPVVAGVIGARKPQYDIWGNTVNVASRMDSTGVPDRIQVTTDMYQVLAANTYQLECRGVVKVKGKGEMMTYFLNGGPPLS

| Structure (SMILES) | Intrinsic activity [1] | K0.5 [2] | K0.5 [3] | Selectivity [4] |
| --- | --- | --- | --- | --- |
| CCCN1Cc2ccccc2[C@@H]2c3cc(O)c(O)cc3CC[C@H]21 | 40% | 180 nM | 25.7 nM |  |
| O=c1[nH]c2ccccc2n1CCCN1CCC(n2c(=O)[nH]c3cc(Cl)ccc32)CC1 |  | > 1000 nM | 1 nM | < 1000 |
| CCCN1Cc2c(C)cccc2[C@@H]2c3cc(O)c(O)cc3CC[C@H]21 | 89% | 23.4 nM | 9.01 nM |  |
| Oc1ccc2c(c1)CN[C@@H]1CCc3cc(O)c(O)cc3[C@@H]21 | 104% | 12.2 nM | 53.6 nM | 4.4 |
| Oc1cc2c(cc1O)[C@H]1c3cc(-c4ccccc4)ccc3CN[C@@H]1CC2 | 60% | 187 nM | 90.2 nM | 0.5 |
| CCc1ccc2c(c1)[C@@H]1c3cc(O)c(O)cc3CC[C@H]1NC2 | 103% | 29.2 nM | 423 nM | 14.5 |
| Cc1cccc2c1CN[C@@H]1CCc3cc(O)c(O)cc3[C@@H]21 | 80% | 6.58 nM | 18 nM | 2.7 |
| Oc1ccc2c(c1)[C@@H]1c3cc(O)c(O)cc3CC[C@H]1NC2 | 95% | 18.8 nM | 194 nM | 10.3 |
| Cc1ccc2c(c1)[C@@H]1c3cc(O)c(O)cc3CC[C@H]1NC2 | 91% | 8.66 nM |  |  |
| Cc1ccc2c(c1)CN[C@@H]1CCc3cc(O)c(O)cc3[C@@H]21 | 105% | 5.06 nM | 18 nM | 3.6 |
| CN1CCc2cc(Cl)c(O)cc2[C@@H](c2ccccc2)C1 |  |  | > 500 nM |  |
| Oc1cc2c(cc1O)[C@H]1c3ccccc3CN[C@@H]1CC2 | 95% |  |  |  |
| CCCN1Cc2cc(C)ccc2[C@@H]2c3cc(O)c(O)cc3CC[C@H]21 | 20% | 181 nM | 29.4 nM | 0.16 |
